Key:
[1] = system: Pseudomonas aeruginosa PA01; test: Bacterial adhesion to peptide-coated glass surfaces, LIVE/DEAD fluorescence microscopy; assay type: cell-based; details: P. aeruginosa; for total surface coverage of bacteria / proportion of non-viable cells to total bacteria present / reduction of total surface coverage compared to BLK: peptide attached to maleimide-functionalised glass; for total surface coverage of bacteria: 48 hours incubation, BLK over 21.7%; for proportion of non-viable cells to total bacteria present: BLK 5.8%; for reduction of total surface coverage compared to BLK: versus blank glass
Description: (§1) Bacterial strains (Staphylococcus aureus strain 38 or Pseudomonas aeruginosa PA01) were streaked onto Chocolate agar (Oxoid, UK) and incubated overnight at 37° C. A single colony was cultured in 10 ml of tryptone soya broth (TSB) (Oxoid, UK) overnight to log phase at 37° C. Optical density of the resulting culture was adjusted to OD660 of 0.1 (corresponding to 1×10^8 cfu/ml) in TSB media (0.25% w/v glucose). Bacterial numbers were confirmed by a retrospective viable count.
(§2) Glass surfaces were placed in 4 ml of the above culture and incubated at 37° C. with shaking at 60 rpm for 24 hours, then the media was replaced with fresh TSB (4 ml) and incubated for a further 24 hours (total of 48 hours). The samples were then washed with PBS before examination by fluorescent staining
(§3) Glass samples with adherent bacteria prepared as described above were stained with LIVE/DEAD BacLight Bacterial Viability Kit (Molecular Probes, Inc., OR, USA) according to the manufacturer's directions as described by others for the analysis of biofilms at surfaces (Kirov, Barraud). Microscopic observation and image acquisition was performed with Olympus FV1000 Confocal Inverted Microscope. Images obtained from 10 representative areas on each of triplicate samples for each surface were analysed using Image software (Abramoff et al.); Biophotonics International. 2004, 11(7), pp 36-42 and Rasband et al. Image). Bethesda Md., USA, U.S. National Institutes of Health, 1997 ? 2011, available from http://imagej.hih.gov.au/ij/). The image analysis results were measured as the average area of live cells and the average area of dead cells per field of view and are reported as the average percentage coverage. Prior to comparing the groups, equality of variances was tested using Levene's test. Unequal variances were adjusted by transforming the data using square root transformation. Differences between the groups were analysed using linear mixed model ANOVA, which adjusts the correlation due to repeated observations. Post hoc multiple comparisons were done using Dunnett T3 comparison. Statistical significance was set at 5%.
(§4) The adhesion of Pseudomonas aeruginosa and Staphylococcus aureus to the modified surfaces was evaluated using fluorescence microscopy. The images obtained were analysed using ImageJ software (Abramoff et al. J. Biophotonics International. 2004, 11(7), pp 36-42 and Rasband et al. ImageJ. Bethesda Md., USA, U.S. National Institutes of Health, 1997-2011, available from http://imagej.hih.gov.au/ij/). The areas of the surfaces covered by bacteria and the relative proportions of bacteria with intact and damaged membranes for each surface were examined by image analysis and the results are shown in FIG. 4.

[2] = system: Staphylococcus aureus strain 38; test: as above; assay type: cell-based; details: S. aureus; for total surface coverage of bacteria / proportion of non-viable bacteria / reduction in total bacteria compared with BLK: peptide attached to maleimide-functionalised glass; for total surface coverage of bacteria: 48 hours incubation, controls more than 16%; for proportion of non-viable bacteria: BLK 2.2%; for reduction in total bacteria compared with BLK: versus blank glass
Description: as §1, §2, §3, §4

[3] = surface-attached, fold versus CysC

In the case of “TLISWIKNKRKQRPRVSRRRRRRGGRRRRC [CysC, melimine wherein an extra cysteine residue has been added to the C-terminus]”, the “total surface coverage of bacteria” value [1] is reported as 11.3%, the “proportion of non-viable cells to total bacteria present” value (from here on “proportion of non-viable cells”) [1] is reported as “not statistically different to the controls” and the “reduction of total surface coverage compared to BLK” value (shortened to “reduction of total surface coverage”) [1] is reported as 47.7%. The “total surface coverage of bacteria” value [2] was 11.8% and the “proportion of non-viable bacteria” value [2] was “not different to the control”.
In the case of “TLISWIKNKRKQCRPRVSRRRRRRGGRRRR [Cys13, melimine wherein an extra cysteine residue has been added to position 13]”, the “total surface coverage of bacteria” value [1] is reported as 7.1%, the “proportion of non-viable cells” value [1] is reported as 30.1% and the “reduction of total surface coverage” value [1] is reported as 67.4%. For the same sequence, the “total surface coverage of bacteria” value [2] was 6.3%, the “proportion of non-viable bacteria” value [2] was 9.8% and the “reduction in total bacteria compared with BLK” value [2] was 64.1%.
With “CTLISWIKNKRKQRPRVSRRRRRRGGRRRR [CysN, melimine wherein an extra cysteine residue has been added to the N-terminus]” the “total surface coverage of bacteria” value [1] was 6.6%, the “proportion of non-viable cells” value [1] was 40.6% and the “reduction of total surface coverage” value [1] was 69.4%. For the same sequence, the “effectiveness in reducing total surface coverage relative to CysC” value [1, 3] was “approximately 2 times”, the “nonviable cells (stained red) relative to CysC” value [1, 3] was ~3 times and the “total surface coverage of bacteria” value [2] was 3.0%. For the same sequence, the “proportion of non-viable bacteria” value [2] was 13.0%, the “reduction in total bacteria compared with BLK” value [2] was 82.7% and the “effectiveness in reducing total surface coverage relative to CysC” value [2, 3] was “approximately 4 times”. The “nonviable cells (stained red) relative to CysC” value [2, 3] was “approximately 8 times”.
